Measured values from patent US20060128014A1, “Compositions and methods for culturing stem cells” (priority 2002, published 2006).
Where no end group is shown, it is not given here.

Columns and labels:
[1] = system: adult derived neural stem cells; experiment: Proliferation of adult derived neural stem cells by increased cAMP (unpublished results); format: cell-based; settings: increased levels of cAMP
adult neural stem cells = experiment: Intracellular ATP assay (ViaLight kit) on cultured adult neural stem cells; format: cell-based, mice; settings: for maximal amplitudes of responses: vanadate and EGF each added alone, compared
Experimental: Neurosphere cultures: The anterior lateral wall of the lateral ventricle of 5-6 week old mice was enzymatically dissociated in 0.8 mg/ml hyaluronidase and 0.5 mg/ml trypsin in DMEM containing 4.5 mg/ml glucose and 80 units/ml DNase at 37° C. for 20 min. The cells were gently triturated and mixed with three volumes of Neurosphere medium (DMEM/F12, B27 supplement, 125 mM HEPES pH7.4) containing 20 ng/ml EGF (unless otherwise stated), 100 units/ml penicillin and 100 _g/ml streptomycin. After passing through a 70 _m strainer, the cells were pelleted at 160×g for 5 min. The supernatant was subsequently removed and the cells resuspended in Neurosphere medium supplemented as above, plated out in culture dishes and incubated at 37° C. Neurospheres were ready to be split approximately 7 days after plating.
To split the neurospheres, they were collected by centrifugation at 160×g for 5 min. The conditioned supernatant (conditioned medium) was removed and saved. The neurospheres were resuspended in 0.5 ml Trypsin/EDTA in HBSS (1×), incubated at 37° C. for 2 min and triturated gently to aid dissociation. Following a further 3 min incubation at 37° C. and trituration, 3 volumes of ice cold NSPH-media-EGF were added to stop further trypsin activity. The cells were pelleted at 220×g for 4 min, and resuspended in a 1:1 mixture of fresh Neurosphere medium and conditioned medium. EGF was supplemented to 20 ng/ml and the culture plated out and incubated at 37° C.
Where stated, a minimal Neurosphere medium was used containing BIT supplement in place of B27 supplement.
Neurosphere assays: NSC, cultured as described above, from passage 2 were seeded in DMEM/F12 supplemented with B27 into a 96-well plate as single cells (10000 cells/well), to which agents were added at the concentrations indicated.
After 3 days of treatment, intracelluar ATP was measured using the ViaLight kit (BioWhittaker) according to the manufacturer's instructions.

neural stem cells = experiment: Sphere formation in presence of vanadate and in combination with PACAP; format: cell-based; settings: DMEM/F12 with B27, after 7 days
Experimental: Cells were isolated as described (see section 5.5.1). Aliquots of 1 ml cell suspension per well equivalent to one brain per well were plated in DMEM/F12 supplemented with B27.
10 uM Vanadate or 10 uM Vanadate +300 nM PACAP was added to the cultures. Fresh substances were added every second day. After 7 days sphereformation was observed.

human neural stem cells = experiment: Neurosphere formation of human neural stem cells; format: cell-based
Experimental: Culture of human neural stem cells: Human neural stem cells were isolated and cultured under adherent conditions according to the protocol described in Palmer et al., 2001, Nature 411(6833):42-43, modified to exclude the additives PDGF and cystatinC and using B27 supplement instead of BIT. The cells were cultured for 10-16 passages in DMEM/F12 with B27-supplement and EGF (20 ng/ml) and FGF-2 (20 ng/ml). Cells were detached with Trypsin/EDTA, rinsed three times and then replated in suspension culture plastic wells in DMEM/F12 and B27-supplement for 24 h without growth factors. Thereafter factors (Vanadate, EGF or EGF+FGF2) were added for one day.

[2] = cited from earlier work
[3] = experimental animals; cited from earlier work
hippocampal CA1 region = settings: cited from earlier work; for delayed neuronal death in the hippocampal CA1 region: transient forebrain ischemia

## PACAP: neuropeptide acting on cyclase activating GPCRs (HSDGIFTDSYSRYRKQMAVKKYLAAVLGKRYKQRVKNK; ends and bridges not checked; UniProt P18509 132-169, looked up)
[1]
  proliferation: trigger proliferation

## [O]=[V]([O-])([O-])[O-] [vanadate]
Adult neural stem cells; added alone, growth media supplemented with BIT or B27, 3 days of treatment, FIG. 1
  proliferative effect (intracellular ATP levels): concentration dependent proliferative effect
Adult neural stem cells; in addition to EGF (3 nM), FIG. 7
  ATP-levels with EGF and increasing concentrations of vanadate: not significantly altered
Adult neural stem cells; in the presence of EGF, supplement BIT or B27, FIGS. 2 and 3
  proliferative effect in combination with EGF: additive
Adult neural stem cells; in the presence of PACAP, supplement BIT or B27, FIGS. 4, 5
  proliferative effect in combination with PACAP: additive
Adult neural stem cells; FIGS. 2 and 3
  maximal amplitudes of responses: equal in size
Neural stem cells; 10 uM Vanadate + 300 nM PACAP, FIG. 6b
  sphere formation: Sphereforming capacity was noted
Neural stem cells; 10 uM Vanadate alone, FIG. 6a
  sphere formation: Sphereforming capacity was noted
Human neural stem cells; 10 uM, after 1 d, DMEM/F12 and B27-supplement, FIG. 8a
  sphere formation: formed numerous spheres
Human neural stem cells; 10 uM, after 1 d, FIG. 8a
  adherence of the spheres: virtually all spheres were free floating
[2]; humans
  tolerability in humans: tolerated
[2]; patients suffering from diabetes
  effect in patients suffering from diabetes: positive results
[3]
  blood glucose levels: reduces blood glucose levels
Hippocampal CA1 region; experimental animals
  neuroprotection: neuroprotective

## IGF-1: insulinlike growth factor-1
Hippocampal CA1 region
  delayed neuronal death in the hippocampal CA1 region: rescued cells from delayed neuronal death

## [Na+].[O]=[V](=[O])[O-] [NaVO3]
[2]; oral
  most common adverse effect: mild gastrointestinal intolerance

## EGF: epidermal growth factor, protein growth factor
Adult neural stem cells; FIGS. 2 and 3
  maximal amplitudes of responses: equal in size

## [Na+].[Na+].[Na+].[O]=[V]([O-])([O-])[O-] [sodium orthovanadate]
Hippocampal CA1 region
  delayed neuronal death in the hippocampal CA1 region: rescued cells from delayed neuronal death

## COc1ccc(C2CNC(=O)C2)cc1OC1CCCC1 (centres unmarked) [rolipram]
[1]
  proliferation: trigger proliferation

## FGF-2: protein growth factor
Human neural stem cells; growth factors added for one day, FIG. 8b and 8c
  neurosphere formation with growth factors: reduced neurosphere formation
